Laboratory results reported in ChEMBL document CHEMBL5126594, “Entry inhibition of hepatitis B virus using cyclosporin O derivatives with peptoid side chain incorporation” (Bioorg Med Chem, 2022).
Square brackets hold non-standard residues; d marks the D form. Peptide text beside a SMILES is read from it. NMeL = CN[C@@H](CC(C)C)C(=O)O; NMeV = CN[C@H](C(=O)O)C(C)C; Nva = CCC[C@H](N)C(=O)O; Sar = CNCC(=O)O

Legend:
Hepatitis B virus [1] = test: Antiviral activity against Hepatitis B virus infected in human HepG2 cells expressing NTCP assessed as inhibition of viral entry by measuring intracellular HBV DNA at 1 uM preincubated with compound for 2 hrs followed by viral infection and measured after 3 hrs by qPCR analysis relative to control; assay type: functional; conditions: time 5 hrs
CYP2C19 = CYP2C19 (Homo sapiens, UniProt P33261); test: Inhibition of human CYP2C19 at 10 uM preincubated for 10 mins followed by NADPH addition and measured after 20 mins by luciferin reagent based luminescence analysis; assay type: ADME; conditions: time 30 min
Hepatitis B virus [2] = test: Antiviral activity against Hepatitis B virus infected in human HepG2 cells expressing NTCP assessed as inhibition of viral entry by measuring intracellular HBV DNA preincubated with compound for 2 hrs followed by viral infection and measured after 3 hrs by qPCR analysis; assay type: functional, organism-based
[3] = Cytotoxicity against human HepG2 cells assessed as reduction in cell viability incubated for 24 hrs by MTS assay; assay type: toxicity, cell-based; conditions: read-out: LC50

Sequence of CYP2C19 (P33261 whole entry): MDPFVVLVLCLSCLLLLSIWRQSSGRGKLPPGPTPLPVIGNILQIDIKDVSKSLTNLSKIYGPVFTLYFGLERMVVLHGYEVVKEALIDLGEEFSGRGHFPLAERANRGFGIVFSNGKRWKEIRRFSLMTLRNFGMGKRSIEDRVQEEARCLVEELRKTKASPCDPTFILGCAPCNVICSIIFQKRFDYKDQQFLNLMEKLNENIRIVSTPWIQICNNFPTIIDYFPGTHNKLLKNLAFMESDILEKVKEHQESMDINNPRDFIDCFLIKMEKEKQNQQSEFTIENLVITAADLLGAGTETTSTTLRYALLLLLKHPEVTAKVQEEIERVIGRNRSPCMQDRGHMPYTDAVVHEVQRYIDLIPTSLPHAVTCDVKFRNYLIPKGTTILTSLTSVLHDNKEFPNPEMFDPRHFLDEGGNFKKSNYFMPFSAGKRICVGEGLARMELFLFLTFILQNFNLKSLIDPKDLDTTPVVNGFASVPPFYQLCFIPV

| SMILES | inhibition at 1 µM (Hepatitis B virus [1]) | further results |
| --- | --- | --- |
| CCC[C@@H]1NC(=O)[C@H](CC(C)C)N(C)C(=O)[C@H](CC(C)C)N(C)C(=O)CN(CC(C)C)C(=O)[C@H](CC(C)C)N(C)C(=O)[C@@H](C)NC(=O)[C@@H](CCC(N)=O)NC(=O)[C@H](CC(C)C)N(C)C(=O)[C@H](C(C)C)NC(=O)[C@H](CC(C)C)N(C)C(=O)CN(C)C1=O | 65% |  |
| CCC[C@@H]1NC(=O)[C@H](CC(C)C)N(C)C(=O)[C@H](CC(C)C)N(C)C(=O)[C@H](CC(C)C)N(C)C(=O)[C@H](CC(C)C)N(C)C(=O)[C@@H](C)NC(=O)[C@@H](CCC(N)=O)NC(=O)[C@H](CC(C)C)N(C)C(=O)[C@H](C(C)C)NC(=O)CN(Cc2ccccc2)C(=O)CN(C)C1=O | 36% |  |
| CN(C)CCC=C1c2ccccc2CCc2ccccc21 [AMITRIPTYLINE] |  | inhibition at 20 min, 10 µM (CYP2C19): 92.1% |
| CCC[C@@H]1NC(=O)[C@H](CC(C)C)N(C)C(=O)[C@H](CC(C)C)N(C)C(=O)[C@H](CC(C)C)N(C)C(=O)CN(CCCCN)C(=O)[C@@H](C)NC(=O)[C@@H](CCC(N)=O)NC(=O)[C@H](CC(C)C)N(C)C(=O)[C@H](C(C)C)NC(=O)[C@H](CC(C)C)N(C)C(=O)CN(C)C1=O | 69% |  |
| CCC[C@@H]1NC(=O)[C@H](CC(C)C)N(C)C(=O)[C@H](CC(C)C)N(C)C(=O)[C@H](CC(C)C)N(C)C(=O)CN(CCC(=O)O)C(=O)[C@@H](C)NC(=O)[C@@H](CCC(N)=O)NC(=O)[C@H](CC(C)C)N(C)C(=O)[C@H](C(C)C)NC(=O)[C@H](CC(C)C)N(C)C(=O)CN(C)C1=O | 84% | IC50 (Hepatitis B virus [2]): 450 nM; CC50 at 24 h [3]: > 200000 nM |
| CCC[C@@H]1NC(=O)[C@H](CC(C)C)N(C)C(=O)[C@H](C(C)C)N(C)C(=O)[C@H](CC(C)C)N(C)C(=O)[C@H](CC(C)C)N(C)C(=O)[C@@H](C)NC(=O)[C@H](C)NC(=O)[C@H](CC(C)C)N(C)C(=O)[C@H](C(C)C)NC(=O)[C@H](CC(C)C)N(C)C(=O)CN(C)C1=O (cyclo(A[dA][NMeL][NMeL][NMeV][NMeL][Nva][Sar][NMeL]V[NMeL])) | 75% | IC50 (Hepatitis B virus [2]): 510 nM; CC50 at 24 h [3]: > 200000 nM |
| CCC[C@@H]1NC(=O)[C@H](CC(C)C)N(C)C(=O)[C@H](CC(C)C)N(C)C(=O)CN(Cc2ccccc2)C(=O)[C@H](CC(C)C)N(C)C(=O)[C@@H](C)NC(=O)[C@@H](CCC(N)=O)NC(=O)[C@H](CC(C)C)N(C)C(=O)[C@H](C(C)C)NC(=O)[C@H](CC(C)C)N(C)C(=O)CN(C)C1=O | 62% |  |
| CCC[C@@H]1NC(=O)[C@H](CC(C)C)N(C)C(=O)[C@H](CC(C)C)N(C)C(=O)[C@H](CC(C)C)N(C)C(=O)[C@H](CC(C)C)N(C)C(=O)[C@@H](C)NC(=O)[C@@H](CCC(N)=O)NC(=O)[C@H](CC(C)C)N(C)C(=O)[C@H](C(C)C)NC(=O)CN(CCC(=O)O)C(=O)CN(C)C1=O | 61% |  |
| CCC[C@@H]1NC(=O)[C@H](CC(C)C)N(C)C(=O)[C@H](CC(C)C)N(C)C(=O)[C@H](CC(C)C)N(C)C(=O)CN(C)C(=O)[C@@H](C)NC(=O)[C@@H](CCC(N)=O)NC(=O)[C@H](CC(C)C)N(C)C(=O)[C@H](C(C)C)NC(=O)[C@H](CC(C)C)N(C)C(=O)CN(C)C1=O | 64% |  |
| CCC[C@@H]1NC(=O)[C@H](CC(C)C)N(C)C(=O)[C@H](CC(C)C)N(C)C(=O)[C@H](CC(C)C)N(C)C(=O)[C@H](CC(C)C)N(C)C(=O)[C@@H](C)NC(=O)[C@@H](CCC(N)=O)NC(=O)[C@H](CC(C)C)N(C)C(=O)[C@H](C(C)C)NC(=O)CN(CCCCN)C(=O)CN(C)C1=O | 71% |  |
| CCC[C@@H]1NC(=O)[C@H](CC(C)C)N(C)C(=O)[C@H](CC(C)C)N(C)C(=O)CN(CCC(=O)O)C(=O)[C@H](CC(C)C)N(C)C(=O)[C@@H](C)NC(=O)[C@@H](CCC(N)=O)NC(=O)[C@H](CC(C)C)N(C)C(=O)[C@H](C(C)C)NC(=O)[C@H](CC(C)C)N(C)C(=O)CN(C)C1=O | 63% |  |
| CCC[C@@H]1NC(=O)[C@H](CC(C)C)N(C)C(=O)[C@H](CC(C)C)N(C)C(=O)[C@H](CC(C)C)N(C)C(=O)[C@H](CC(C)C)N(C)C(=O)[C@@H](C)NC(=O)[C@@H](CCC(N)=O)NC(=O)[C@H](CC(C)C)N(C)C(=O)[C@H](C(C)C)NC(=O)CN(CCOC)C(=O)CN(C)C1=O | 67% |  |
| CCC[C@@H]1NC(=O)[C@H](CC(C)C)N(C)C(=O)[C@H](CC(C)C)N(C)C(=O)[C@H](CC(C)C)N(C)C(=O)CN(CC(C)C)C(=O)[C@@H](C)NC(=O)[C@@H](CCC(N)=O)NC(=O)[C@H](CC(C)C)N(C)C(=O)[C@H](C(C)C)NC(=O)[C@H](CC(C)C)N(C)C(=O)CN(C)C1=O | 62% |  |
